Data published in ChEMBL document CHEMBL1759984, “Synthesis and structure-activity relationships of phenylpropanoid amides of serotonin on tyrosinase inhibition” (Bioorg Med Chem Lett, 2011).

Tests used:
[1] = tested on: Radical scavenging activity
Description: Antioxidant activity assessed as DPPH radical scavenging activity by spectrophotometry

Tyrosinase = target: T1, Tyrosinase (Agaricus bisporus, UniProt O42713)
T1 sequence (O42713 whole entry): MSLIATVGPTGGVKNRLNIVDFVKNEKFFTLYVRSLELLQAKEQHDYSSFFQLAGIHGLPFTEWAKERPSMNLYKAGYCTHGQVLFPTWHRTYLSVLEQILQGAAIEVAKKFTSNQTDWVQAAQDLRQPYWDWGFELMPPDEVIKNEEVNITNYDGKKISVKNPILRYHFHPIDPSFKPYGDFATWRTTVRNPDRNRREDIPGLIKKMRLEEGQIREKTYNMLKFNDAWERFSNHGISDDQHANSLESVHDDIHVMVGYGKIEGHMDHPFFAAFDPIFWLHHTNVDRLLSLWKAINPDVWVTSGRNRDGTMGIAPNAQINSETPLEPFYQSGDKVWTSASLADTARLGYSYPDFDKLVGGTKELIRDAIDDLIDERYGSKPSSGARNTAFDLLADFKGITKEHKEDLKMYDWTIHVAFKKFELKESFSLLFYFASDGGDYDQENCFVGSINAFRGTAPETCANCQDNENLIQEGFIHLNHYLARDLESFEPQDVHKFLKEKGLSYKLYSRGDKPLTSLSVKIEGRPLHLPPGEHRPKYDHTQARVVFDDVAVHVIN
Description: Inhibition of mushroom tyrosinase after 25 mins by spectrophotometry

Structure (SMILES) | EC50 [1] [µM] | IC50 (Tyrosinase) [µM]
O=C(/C=C/c1ccc(O)c(O)c1)NCCc1c[nH]c2ccc(O)cc12 [N-CAFFEOYLSEROTONIN] | 19.4 | 278
COc1ccc(/C=C/C(=O)NCCc2c[nH]c3ccc(O)cc23)cc1O [N-ISOFERULOYL SEROTONIN] | 35.1 | 5.4
COc1ccc(/C=C/C(=O)NCCc2c[nH]c3ccc(O)cc23)cc1 [N-P-METHOXY CINNAMOYL SEROTONIN] | 34.2 | 23.8
O=C(/C=C/c1ccc(O)cc1)NCCc1c[nH]c2ccc(O)cc12 [N-P-COUMAROYL SEROTONIN] | 24.7 | 8.8
COc1cc(/C=C/C(=O)O)cc(OC)c1O [SINAPINATE] | > 250 | > 351
COc1cc(/C=C/C(=O)O)ccc1O [FERULATE] | > 250 | > 350
COc1cc(/C=C/C(=O)NCCc2c[nH]c3ccc(O)cc23)cc(OC)c1O [N-SINAPOYL SEROTONIN] | 30.7 | > 350
COc1ccc(/C=C/C(=O)NCCc2c[nH]c3ccc(O)cc23)cc1OC [N-3,4-DIMETHOXY CINNAMOYL SEROTONIN] | 28.1 | 322
NCCc1c[nH]c2ccc(O)cc12 [SEROTONIN] | > 250 | > 350
COc1cc(/C=C/C(=O)NCCc2c[nH]c3ccc(O)cc23)ccc1O [N-FERULOYL SEROTONIN] | 22.8 | 8
O=C(/C=C/c1ccccc1)NCCc1c[nH]c2ccc(O)cc12 [N-CINNAMOYL SEROTONIN] | 22.2 | 40.4
O=C(O)/C=C/c1ccc(O)cc1 [COUMARIC ACID] | > 250 | 121
COc1ccc(/C=C/C(=O)O)cc1 [4-METHOXYCINNAMIC ACID] | > 250 | > 350
O=C(O)CCC(=O)NCCc1c[nH]c2ccc(O)cc12 [BUFOBUTANOIC ACID] | 38.3 | > 350
